Reference: ChEMBL document CHEMBL1128746, “Aminoalkylindoles: structure-activity relationships of novel cannabinoid mimetics” (J Med Chem, 1995)

What was measured:
[1] = biological target: Cannabinoid receptor 1 (Rattus norvegicus) (UniProt P20272); assay: […] [3H]WIN-55212 binding to Cannabinoid receptor 1 in rat cerebellum membranes.; type: cell membranes; conditions: Membrane, concentration not given here
[2] = species on record: Mus musculus; assay: Concentration required to inhibit electrically induced contractions in isolated mouse vas deferens preparation in vitro; type: functional; conditions: Mus musculus

Chain of Cannabinoid receptor 1 (Rattus norvegicus) (P20272 whole entry): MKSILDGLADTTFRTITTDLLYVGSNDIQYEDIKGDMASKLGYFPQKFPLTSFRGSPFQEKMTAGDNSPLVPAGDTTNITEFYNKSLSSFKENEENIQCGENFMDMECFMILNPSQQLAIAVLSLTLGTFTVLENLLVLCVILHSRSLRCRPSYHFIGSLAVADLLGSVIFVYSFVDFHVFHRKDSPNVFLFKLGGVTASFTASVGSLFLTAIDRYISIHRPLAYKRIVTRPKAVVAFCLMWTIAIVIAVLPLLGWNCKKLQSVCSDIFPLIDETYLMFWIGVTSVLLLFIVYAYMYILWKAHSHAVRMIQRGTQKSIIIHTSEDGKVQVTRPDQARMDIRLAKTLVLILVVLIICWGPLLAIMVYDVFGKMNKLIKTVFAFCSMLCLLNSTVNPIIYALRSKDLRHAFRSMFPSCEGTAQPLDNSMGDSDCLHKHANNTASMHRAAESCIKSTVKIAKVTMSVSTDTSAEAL

Cc1c(C(=O)c2ccccc2Cl)c2ccccc2n1CCN1CCOCC1
inhibition [1]: 59%
IC50 [2]: 92 nM

Cc1c(C(=O)c2ccc(O)cc2)c2ccccc2n1CCN1CCOCC1
inhibition [1]: 15%
IC50 [2]: > 10000 nM

COc1ccc(C(=O)c2c(C)n(CCN3CCOCC3)c3ccc(OC)cc23)cc1
inhibition [1]: 14%
IC50 [2]: > 10000 nM

Cc1cc(C)cc(C(=O)c2c(C)n(CCN3CCOCC3)c3ccccc23)c1
inhibition [1]: 42%
IC50 [2]: 390 nM

COc1ccc(C(=O)c2c(C)n(CCO)c3ccccc23)cc1
inhibition [1]: -6%
IC50 [2]: > 10000 nM

COc1ccc(C(=O)c2c(C)n(CC[N+]3([O-])CCOCC3)c3ccccc23)cc1
inhibition [1]: -9%
IC50 [2]: > 10000 nM

O=C(c1cccc2c1CCCC2)c1cn(CCN2CCOCC2)c2ccccc12
inhibition [1]: 97%
IC50 [2]: 6 nM

COc1ccc(C(=O)c2c(C)n(CCN3CCCCC3)c3ccccc23)cc1
inhibition [1]: 34%
IC50 [2]: 1430 nM

O=C(c1ccc(Br)c2ccccc12)c1cn(CCN2CCOCC2)c2ccccc12
inhibition [1]: 98%
IC50 [2]: 5.5 nM

COc1ccc(C(=O)c2c(C)n(C(C)CN3CCOCC3)c3ccccc23)cc1 (stereo not given)
inhibition [1]: 34%
IC50 [2]: 1360 nM

COc1cccc(C(=O)c2c(C)n(CCN3CCOCC3)c3ccccc23)c1
inhibition [1]: 76%
IC50 [2]: 206 nM

Cc1ccccc1C(=O)c1c(C)n(CCN2CCOCC2)c2ccccc12
inhibition [1]: 13%
IC50 [2]: 715 nM

COc1ccc(C(=O)c2cn(C(C)CN3CCOCC3)c3ccccc23)cc1 (stereo not given)
inhibition [1]: 35%
IC50 [2]: 3670 nM

Cc1c(C(=O)c2cccc3ccccc23)c2ccccc2n1CC(=O)O
inhibition [1]: 21%
IC50 [2]: 9740 nM

COc1ccc(C(=O)c2cn(CCN3CCOCC3)c3cc(Br)ccc23)cc1
inhibition [1]: 21%
IC50 [2]: 17 nM

Cc1c(C(=O)c2ccc(-c3ccccc3)cc2)c2ccccc2n1CCN1CCOCC1
inhibition [1]: 9%
IC50 [2]: 10000 nM

Cc1c(C(=O)c2ccccc2F)c2ccccc2n1CCN1CCOCC1
inhibition [1]: 15%
IC50 [2]: 1940 nM

COc1ccc(C(=O)c2c(C)n(CCN3CCOCC3)c3ccc(F)cc23)cc1
inhibition [1]: 19%
IC50 [2]: 119 nM

Cc1c(C(=O)c2cc3ccccc3c3ccccc23)c2ccccc2n1CCN1CCOCC1
inhibition [1]: 75%
IC50 [2]: 175 nM

Cc1c(C(=O)c2ccc(C#N)cc2)c2ccccc2n1CCN1CCOCC1
inhibition [1]: -1%
IC50 [2]: > 10000 nM

Cc1c(C=O)c2ccccc2n1CCN1CCOCC1
inhibition [1]: 37%
IC50 [2]: 656 nM

COc1ccc(C(=O)c2c(C)n(CCN3CCOCC3)c3cccc(C)c23)cc1
inhibition [1]: 42%
IC50 [2]: > 10000 nM

COc1ccc(C(=O)c2c(C)n(CCN3CCOCC3)c3c(OC)cccc23)cc1
inhibition [1]: 64%
IC50 [2]: 266 nM

COc1ccc(C(=O)c2c(C)n(CCCN3CCOCC3)c3ccccc23)cc1
inhibition [1]: -6%
IC50 [2]: 360 nM

N#Cc1ccc(C(=O)c2cn(CCN3CCOCC3)c3ccccc23)c2ccccc12
inhibition [1]: 96%
IC50 [2]: 4.8 nM

Cc1c(C(=O)c2ccc3ccc4cccc5ccc2c3c45)c2ccccc2n1CCN1CCOCC1
inhibition [1]: 89%
IC50 [2]: 42 nM

COc1ccc(C(=O)c2c(C)n(CCN3CCOCC3)c3ccc(C)cc23)cc1
inhibition [1]: 7%
IC50 [2]: > 10000 nM

Cc1c(C(=O)c2cccc3cc4ccccc4cc23)c2ccccc2n1CCN1CCOCC1
inhibition [1]: 74%
IC50 [2]: 57 nM

Cc1c(C(=O)c2cnc3ccccc3c2)c2ccccc2n1CCN1CCOCC1
inhibition [1]: 28%
IC50 [2]: 571 nM

Cc1c(C(=O)c2ccc(Cl)cc2)c2ccccc2n1CCN1CCOCC1
inhibition [1]: 62%
IC50 [2]: 564 nM

Cc1cccc(C)c1C(=O)c1c(C)n(CCN2CCOCC2)c2ccccc12
inhibition [1]: -5%
IC50 [2]: 1570 nM

COc1ccc(C(=O)c2c(C)n(CCN3CCCC3)c3ccccc23)cc1
inhibition [1]: 7%
IC50 [2]: 241 nM

COc1ccc(C(=O)c2c(Cl)n(CCN3CCOCC3)c3ccccc23)cc1
inhibition [1]: 47%
IC50 [2]: 176 nM

Cc1[nH]c2ccccc2c1C(=O)c1cccc2ccccc12
inhibition [1]: 3%
IC50 [2]: > 10000 nM

C[N+]1(CCn2cc(C(=O)c3cccc4ccccc34)c3ccccc32)CCOCC1
inhibition [1]: 14%
IC50 [2]: 180 nM
